Laboratory results reported in PubChem BioAssay (NCI).
Several values for one entry are separate records, joined by “and”; a condition that tells them apart may be missing. Equal entries are not always repeated.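 The concentration for 50% growth inhibition is given as GI50. TGI marks complete inhibition of growth.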

How the values were obtained:
Experiment in all cases: DTP human tumour cell line panel, 384-well format
NCI-H460 NSCLC = tested on: NCI-H460 NSCLC
786-0 renal = tested on: 786-0 renal
MOLT-4 leukemia = tested on: MOLT-4 leukemia
K-562 leukemia = tested on: K-562 leukemia
HCT-15 colon = tested on: HCT-15 colon
SF-539 CNS = tested on: SF-539 CNS
SK-OV-3 ovarian = tested on: SK-OV-3 ovarian
DU-145 prostate = tested on: DU-145 prostate
NCI/ADR-RES ovarian = tested on: NCI/ADR-RES ovarian
OVCAR-4 ovarian = tested on: OVCAR-4 ovarian
M14 melanoma = tested on: M14 melanoma
MCF7 breast = tested on: MCF7 breast
CCRF-CEM leukemia = tested on: CCRF-CEM leukemia
UO-31 renal = tested on: UO-31 renal
SNB-19 CNS = tested on: SNB-19 CNS
KM12 colon = tested on: KM12 colon
MDA-MB-468 breast = tested on: MDA-MB-468 breast
HCC-2998 colon = tested on: HCC-2998 colon
HCT-116 colon = tested on: HCT-116 colon
NCI-H23 lung = tested on: NCI-H23 lung
LOX IMVI melanoma = tested on: LOX IMVI melanoma
EKVX NSCLC = tested on: EKVX NSCLC
A498 renal = tested on: A498 renal
NCI-H522 lung = tested on: NCI-H522 lung
CAKI-1 renal = tested on: CAKI-1 renal
RPMI-8226 leukemia = tested on: RPMI-8226 leukemia
ACHN renal = tested on: ACHN renal
U251 glioblastoma = tested on: U251 glioblastoma
HOP-62 NSCLC = tested on: HOP-62 NSCLC
SK-MEL-5 melanoma = tested on: SK-MEL-5 melanoma
A549 NSCLC = tested on: A549 NSCLC
SW-620 colon = tested on: SW-620 colon
PC-3 prostate = tested on: PC-3 prostate
SF-295 CNS = tested on: SF-295 CNS
HL-60(TB) leukemia = tested on: HL-60(TB) leukemia
NCI-H226 lung = tested on: NCI-H226 lung
UACC-62 melanoma = tested on: UACC-62 melanoma
HS 578T breast = tested on: HS 578T breast
SF-268 CNS = tested on: SF-268 CNS
RXF 393 renal = tested on: RXF 393 renal
MALME-3M melanoma = tested on: MALME-3M melanoma
MDA-MB-435 melanoma = tested on: MDA-MB-435 melanoma
SNB-75 CNS = tested on: SNB-75 CNS
BT-549 breast = tested on: BT-549 breast
COLO 205 colon = tested on: COLO 205 colon
SN12C renal = tested on: SN12C renal
HT29 colon = tested on: HT29 colon
T-47D breast = tested on: T-47D breast
OVCAR-3 ovarian = tested on: OVCAR-3 ovarian
SK-MEL-28 melanoma = tested on: SK-MEL-28 melanoma
IGROV1 ovarian = tested on: IGROV1 ovarian
SR leukemia = tested on: SR leukemia
OVCAR-8 ovarian = tested on: OVCAR-8 ovarian
TK-10 renal = tested on: TK-10 renal
MDA-MB-231 breast = tested on: MDA-MB-231 breast
UACC-257 melanoma = tested on: UACC-257 melanoma
NCI-H322M lung = tested on: NCI-H322M lung
HOP-92 NSCLC = tested on: HOP-92 NSCLC

SMILES: Cc1cc(C(=O)NC(CCC(=O)O)C(=O)O)sc1CCC1CNc2nc(N)[nH]c(=O)c2C1 (stereo unspecified)
- GI50 (NCI-H460 NSCLC): < 10 nM and 10.9 nM
- TGI (NCI-H460 NSCLC): > 100000 nM
- GI50 ([…]-0 renal): < 10 nM
- TGI (786-0 renal): < 10 nM
- GI50 (MOLT-4 leukemia): < 10 nM
- TGI (MOLT-4 leukemia): 12.8 nM and 16.8 nM
- GI50 (K-562 leukemia): < 10 nM
- TGI (K-562 leukemia): < 10 nM
- GI50 (HCT-15 colon): 25 nM and 31.4 nM
- TGI (HCT-15 colon): 73.3 nM and 158 nM
- GI50 (SF-539 CNS): < 10 nM
- TGI (SF-539 CNS): < 10 nM and 20.5 nM
- GI50 (SK-OV-3 ovarian): < 10 nM
- TGI (SK-OV-3 ovarian): < 10 nM
- GI50 (DU-145 prostate): < 10 nM
- TGI (DU-145 prostate): < 10 nM and 29.4 nM
- GI50 (NCI/ADR-RES ovarian): 19 nM and 17.5 nM
- TGI (NCI/ADR-RES ovarian): 35.6 nM and 34 nM
- GI50 (OVCAR-4 ovarian): 20.5 nM and 22 nM
- TGI (OVCAR-4 ovarian): 88.1 nM and 70.7 nM
- GI50 (M14 melanoma): < 10 nM
- TGI (M14 melanoma): < 10 nM and 22.8 nM
- GI50 (MCF7 breast): < 10 nM and 17.5 nM
- TGI (MCF7 breast): 28 nM and 47.7 nM
- GI50 (CCRF-CEM leukemia): < 10 nM
- TGI (CCRF-CEM leukemia): 11.8 nM and 18.6 nM
- GI50 (UO-31 renal): < 10 nM and 18.7 nM
- TGI (UO-31 renal): < 10 nM and 39.1 nM
- GI50 (SNB-19 CNS): < 10 nM and 13 nM
- TGI (SNB-19 CNS): < 10 nM and 30.1 nM
- GI50 (KM12 colon): 25.6 nM and 28.7 nM
- TGI (KM12 colon): 97.6 nM and 196 nM
- GI50 (MDA-MB-468 breast): 17.5 nM and 17.6 nM
- TGI (MDA-MB-468 breast): 33.9 nM and 37.5 nM
- GI50 (HCC-2998 colon): 22.4 nM and 51.4 nM
- TGI (HCC-2998 colon): 77.2 nM and 378 nM
- GI50 (HCT-116 colon): < 10 nM and 15.9 nM
- TGI (HCT-116 colon): 24.8 nM and 39.8 nM
- GI50 (NCI-H23 lung): 29 nM and 150 nM
- TGI (NCI-H23 lung): 85.4 nM and 401 nM
- GI50 (LOX IMVI melanoma): 19.4 nM and 20 nM
- TGI (LOX IMVI melanoma): 40.7 nM and 44.4 nM
- GI50 (EKVX NSCLC): 12 nM and 17.1 nM
- TGI (EKVX NSCLC): 28.8 nM and 36.1 nM
- GI50 (A498 renal): < 10 nM
- TGI (A498 renal): 11.3 nM and 25.3 nM
- GI50 (NCI-H522 lung): < 10 nM and 17.6 nM
- TGI (NCI-H522 lung): 18.7 nM and 34.3 nM
- GI50 (CAKI-1 renal): < 10 nM
- TGI (CAKI-1 renal): < 10 nM
- GI50 (RPMI-8226 leukemia): 17.7 nM and 17.1 nM
- TGI (RPMI-8226 leukemia): 35.4 nM and 36 nM
- GI50 (ACHN renal): < 10 nM and 19.6 nM
- TGI (ACHN renal): < 10 nM and 43.1 nM
- GI50 (U251 glioblastoma): < 10 nM and 16.4 nM
- TGI (U251 glioblastoma): 22.9 nM and 33.5 nM
- GI50 (HOP-62 NSCLC): 18.2 nM
- TGI (HOP-62 NSCLC): 34.6 nM and 35.8 nM
- GI50 (SK-MEL-5 melanoma): 24.5 nM and 33.3 nM
- TGI (SK-MEL-5 melanoma): 91.6 nM and 202 nM
- GI50 (A549 NSCLC): 20.1 nM and 24.2 nM
- TGI (A549 NSCLC): 42.8 nM and 61 nM
- GI50 (SW-620 colon): < 10 nM and 13.3 nM
- TGI (SW-620 colon): 21.1 nM and 35.6 nM
- GI50 (PC-3 prostate): < 10 nM
- TGI (PC-3 prostate): < 10 nM
- GI50 (SF-295 CNS): 18.4 nM and 18.6 nM
- TGI (SF-295 CNS): 35.4 nM and 36.3 nM
- GI50 (HL-60(TB) leukemia): < 10 nM
- TGI (HL-60(TB) leukemia): < 10 nM and 14.1 nM
- GI50 (NCI-H226 lung): 24.2 nM and 25.8 nM
- TGI (NCI-H226 lung): 59.1 nM and 75.1 nM
- GI50 (UACC-62 melanoma): 11.3 nM and 25.6 nM
- TGI (UACC-62 melanoma): 59.4 nM and 75.1 nM
- GI50 (HS 578T breast): 22 nM and 25.9 nM
- TGI (HS 578T breast): 60.1 nM and 107 nM
- GI50 (SF-268 CNS): < 10 nM
- TGI (SF-268 CNS): < 10 nM and 18.7 nM
- GI50 (RXF 393 renal): < 10 nM
- TGI (RXF 393 renal): < 10 nM
- GI50 (MALME-3M melanoma): 16 nM and 19.8 nM
- TGI (MALME-3M melanoma): 35.8 nM and 41.1 nM
- GI50 (MDA-MB-435 melanoma): 17.3 nM and 16.7 nM
- TGI (MDA-MB-435 melanoma): 38.2 nM and 38.7 nM
- GI50 (SNB-75 CNS): < 10 nM
- TGI (SNB-75 CNS): < 10 nM and 14.3 nM
- GI50 (BT-549 breast): 19.3 nM and 18.2 nM
- TGI (BT-549 breast): 37.5 nM and 36.4 nM
- GI50 (COLO 205 colon): 28.5 nM and 29.7 nM
- TGI (COLO 205 colon): 81.6 nM and 141 nM
- GI50 (SN12C renal): < 10 nM
- TGI (SN12C renal): < 10 nM and 23.4 nM
- GI50 (HT29 colon): < 10 nM and 17 nM
- TGI (HT29 colon): 28.5 nM and 46.4 nM
- GI50 (T-47D breast): 23.8 nM and 30.3 nM
- TGI (T-47D breast): > 100000 nM
- GI50 (OVCAR-3 ovarian): 21.7 nM and 29 nM
- TGI (OVCAR-3 ovarian): 53.9 nM and 82.6 nM
- GI50 (SK-MEL-28 melanoma): 13.2 nM and 16.9 nM
- TGI (SK-MEL-28 melanoma): 29.6 nM and 34.7 nM
- GI50 (IGROV1 ovarian): 19.7 nM and 20.3 nM
- TGI (IGROV1 ovarian): 40.9 nM and 43.8 nM
- GI50 (SR leukemia): > 100000 nM
- TGI (SR leukemia): > 100000 nM
- GI50 (OVCAR-8 ovarian): < 10 nM
- TGI (OVCAR-8 ovarian): < 10 nM and 11.6 nM
- GI50 (TK-10 renal): < 10 nM
- TGI (TK-10 renal): < 10 nM
- GI50 (MDA-MB-231 breast): 388 nM and 1680 nM
- TGI (MDA-MB-231 breast): 1430 nM and 3460 nM
- GI50 (UACC-257 melanoma): 12.9 nM and 18.3 nM
- TGI (UACC-257 melanoma): 36.5 nM and 46.9 nM
- GI50 (NCI-H322M lung): 17.8 nM and 20.2 nM
- TGI (NCI-H322M lung): 37 nM and 43.5 nM
- GI50 (HOP-92 NSCLC): < 10 nM
- TGI (HOP-92 NSCLC): < 10 nM and 14.9 nM
